In patent publication US20230140216A1, “COMBINATION THERAPY FOR TREATING MPS1” (GAIN THERAPEUTICS SA, priority 2020, published 2023):

Molecular target: T1, Recombinant human α-L-iduronidase protein (Homo sapiens, UniProt P35475)
T1 construct: purchased R&D
T1 sequence (P35475 28-653): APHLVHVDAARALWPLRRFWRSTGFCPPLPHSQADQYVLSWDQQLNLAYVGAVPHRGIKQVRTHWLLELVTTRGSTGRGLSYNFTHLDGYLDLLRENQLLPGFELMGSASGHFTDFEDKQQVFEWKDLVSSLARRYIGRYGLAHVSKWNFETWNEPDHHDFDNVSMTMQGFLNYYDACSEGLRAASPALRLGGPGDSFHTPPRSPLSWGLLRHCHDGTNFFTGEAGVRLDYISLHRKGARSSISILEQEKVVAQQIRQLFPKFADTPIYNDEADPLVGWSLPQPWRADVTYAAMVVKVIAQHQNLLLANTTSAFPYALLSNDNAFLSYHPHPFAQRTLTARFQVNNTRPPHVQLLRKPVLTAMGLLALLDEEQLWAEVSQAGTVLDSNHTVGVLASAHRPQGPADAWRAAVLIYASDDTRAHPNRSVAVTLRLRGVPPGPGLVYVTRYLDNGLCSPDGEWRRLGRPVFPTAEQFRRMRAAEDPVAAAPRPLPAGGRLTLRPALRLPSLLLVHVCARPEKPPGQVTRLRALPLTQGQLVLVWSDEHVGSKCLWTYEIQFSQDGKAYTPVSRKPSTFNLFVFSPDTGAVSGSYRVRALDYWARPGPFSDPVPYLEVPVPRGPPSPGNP
Assay: Differential scanning fluorimetry (DSF) thermal stabilization;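 further: Classes count stabilization of α-L-iduronidase despite the GALC label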
Format: binding
Settings: ΔTm class
Method: The capacity of Compounds of the Disclosure to stabilize α-L-iduronidase was assessed by differential scanning fluorimetry technique. The thermal denaturation of purified human native enzyme was monitored in the presence of the extrinsic fluorescent probe SYPRO Orange (Sigma-Aldrich, St. Louis, MO). The tested compounds were dissolved in 100% DMSO and diluted into the protein buffer to achieve final concentrations of 1% DMSO.
Recombinant human α-L-iduronidase protein (purchased from R&D) 12.5 µL of 1.5 µM in 100 mM Hepes 20 mM MgCl2 pH 7 (protein final concentration 0.75 µM) with Sypro Orange 10X and 12.5 µl of the different compound solutions were dispensed into 96-well PCR-plates. The intensity of SYPRO Orange fluorescence after a systematic increase of temperature was monitored in the Roche LightCycler® 480 II device (Roche Diagnostics).
The capacity to stabilize α-L-iduronidase is denoted as follows: • ΔTm GALC > 1 is shown as A; • ΔTm GALC between 0.5 and 1 is shown as B; • ΔTm GALC between 0.1 and 0.5 is shown as C; and • ΔTm GALC less than 0.1 is shown as D.

[1] = commercially available Examples 8-37

Structure (SMILES)	DSF Activity range (synthetized Examples 38-94)	DSF Activity range [1]	also measured
Cc1ccc2c(=O)[nH]c(CN(CC(=O)N(C)c3ccccc3Cl)C3CC3)nc2c1 [Example 83]	D (ΔTm GALC less than 0.1 is shown as D)	–	–
Cc1cc2nc(CN(C)CC(=O)N3CCc4ccccc43)[nH]c(=O)c2s1 [Example 52]	B (ΔTm GALC between 0.5 and 1 is shown as B)	–	–
CCN(CC(=O)N(C)c1ccccc1Cl)Cc1nc2cc(C)ccc2c(=O)[nH]1 [Example 84]	C (ΔTm GALC between 0.1 and 0.5 is shown as C)	–	–
Cc1cccc(-n2ncc3c(O)nc(CN(C)CC(=O)N(C)c4ccccc4Cl)nc32)c1 [Example 3, N-(2-chlorophenyl)-2-(((4-hydroxy-1-m-tolyl-1H-pyrazolo[3,4-d]pyrimidin-6-yl)methyl)(methyl)amino)-N-methylacetamide]	–	–	DSF Activity range (synthetized Examples 1-7): C (ΔTm GALC between 0.1 and 0.5 is shown as C)
Cc1cc2nc(CN(C)CC(=O)N(C)c3ccccc3Cl)[nH]c(=O)c2s1 [Example 45]	B (ΔTm GALC between 0.5 and 1 is shown as B)	–	–
CCN(CC(=O)N(C)c1c(Cl)cccc1Cl)Cc1nc2cc(F)ccc2c(=O)[nH]1 [Example 73, 2-(N-ethyl-N-((7-fluoro-3,4-dihydro-4-oxoquinazolin-2-yl)methyl)amino)-N-(2,6-dichlorophenyl)-N-methylacetamide]	C (ΔTm GALC between 0.1 and 0.5 is shown as C)	–	–
CCN(CC(=O)N(C)c1nc(C)cs1)Cc1nc2ccc(F)cc2c(=O)[nH]1 [Example 67, 2-(ethyl((6-fluoro-4-oxo-3,4-dihydroquinazolin-2-yl)methyl)amino)-N-methyl-N-(4-methylthiazol-2-yl)acetamide]	B (ΔTm GALC between 0.5 and 1 is shown as B)	–	–
Cc1csc(N(C)C(=O)CN(C)Cc2nc3c(C)csc3c(=O)[nH]2)n1 [Example 48, N-methyl-2-(methyl((7-methyl-4-oxo-3,4-dihydrothieno[3,2-d]pyrimidin-2-yl)methyl)amino)-N-(4-methylthiazol-2-yl)acetamide]	C (ΔTm GALC between 0.1 and 0.5 is shown as C)	–	–
CCN(CC(=O)N(C)c1ccccc1Cl)Cc1nc2ccc(C)cc2c(=O)[nH]1 [Example 79]	C (ΔTm GALC between 0.1 and 0.5 is shown as C)	–	–
COCCN(CC(=O)Nc1ccc(C)cc1)Cc1nc2ccccc2c(=O)[nH]1 [Example 17, 2-((2-methoxyethyl)((4-oxo-3,4-dihydroquinazolin-2-yl)methyl)amino)-N-(p-tolyl)acetamide]	–	B (ΔTm GALC between 0.5 and 1 is shown as B)	–
CN(CC(=O)Nc1ccc(Cl)c(Cl)c1)Cc1nc2c(cnn2C)c(=O)[nH]1 [Example 30, N-(3,4-dichlorophenyl)-2-(methyl((1-methyl-4-oxo-4,5-dihydro-1H-pyrazolo[3,4-d]pyrimidin-6-yl)methyl)amino)acetamide]	–	B (ΔTm GALC between 0.5 and 1 is shown as B)	–
CN(CC(=O)N1CCc2ccccc21)Cc1nc2c(cnn2C)c(=O)[nH]1 [Example 91]	B (ΔTm GALC between 0.5 and 1 is shown as B)	–	–
CN(CC(=O)N(C)c1cccc(F)c1)Cc1nc2cc(F)ccc2c(=O)[nH]1 [Example 77]	C (ΔTm GALC between 0.1 and 0.5 is shown as C)	–	–
CN(CC(=O)Nc1cccc2ccccc12)Cc1nc2ccccc2c(=O)[nH]1 [Example 18, 2-(methyl((4-oxo-3,4-dihydroquinazolin-2-yl)methyl)amino)-N-(naphthalen-1-yl)acetamide]	–	A (ΔTm GALC > 1 is shown as A)	–
O=C(Nc1ccccc1)C1CCCN1Cc1nc2ccccc2c(=O)[nH]1 (stereo not shown) [Example 24, 1-((4-oxo-3,4-dihydroquinazolin-2-yl)methyl)-N-phenylpyrrolidine-2-carboxamide]	–	B (ΔTm GALC between 0.5 and 1 is shown as B)	–
CCN(CC(=O)Nc1ccccc1Cl)Cc1nc2ccccc2c(=O)[nH]1 [Example 22, N-(2-chlorophenyl)-2-(ethyl((4-oxo-3,4-dihydroquinazolin-2-yl)methyl)amino)acetamide]	–	C (ΔTm GALC between 0.1 and 0.5 is shown as C)	–
